What all share (format): in vivo
Experiment [1] is described as follows: Alcohol sensation in 17.5% ABV solution with 3 to 500 ppb β-sitosterol. The protocol:
(B) A series of β-sitosterol solutions (prepared in Example I) were added to the alcohol solution at 17.5% ABV (prepared in Example I) to yield final concentrations of β-sitosterol ranging from 3 to 500 ppb. The alcohol sensation of the obtained samples containing different amounts of β-sitosterol was evaluated.

Experiment [2] is described as follows: Carbonation effect intensity in carbonated water (7.2 g/L CO2), panel, scale 0 to 10. To be noted: mean; 2.5 ppt in carbonated water 7.2 g/L CO2; scale 0 to 10 (0=none, 4=medium, 7=high, 10=extremely high); p<0.01 vs carbonated water alone. The protocol: (A) A β-sitosterol solution (prepared in Example I) was added to the carbonated water (7.2 g/L CO2) (prepared in Example I) to yield a final concentration of 2.5 ppt.
The carbonation effect of the obtained sample was evaluated and compared by a panel with the carbonated water using an intensity scale of 0 to 10, where 0=none, 4=medium, 7=high and 10=extremely high. The intensity of carbonation effect was rated. Mean (“Carbonation Intensity”) and standard error of the mean (“SE”, +) were obtained.

Experiment [3] in a line: Alcohol impression in alcohol-free beer, panel comparison with alcohol solutions. The conditions noted are these: 25 ppb in Brahma 0.0% alcohol free beer. The procedure:
1. […] 2. Alcohol solutions containing varying amounts of ethanol (Alcohol by Volume, “ABV”) were prepared as follows: • Alcohol solutions at 1% ABV, 2% ABV, 2.5% ABV, 3% ABV and 5% ABV were prepared by adding varying amounts of ethanol in Brahma 0.0% alcohol-free beer (Anheuser-Busch InBev); • Alcohol solution at 6% ABV was prepared by adding ethanol in water; and • Alcohol solutions with ABV ranging from 8.75% to 50% were prepared by diluting CAPTAIN MORGAN® Original Spiced Rum (35% ABV) (Diageo North America Inc.) in varying amounts of water. 3. Carbonated water containing carbon dioxide at 6.0, 7.2 and 8.0 g/L, respectively, were prepared.
A β-sitosterol solution (prepared in Example I) was added in Brahma 0.0% alcohol free beer to yield a final concentration of 25 ppb. The alcohol impression of the obtained sample was evaluated and compared by a panel with alcohol solutions at 1% ABV, 2% ABV, 2.5% ABV, 3% ABV and 5% ABV (prepared in Example I). 3-Sitosterol (25 ppb) provided an equal level of alcohol impression as the alcohol solution at 2.5% ABV.

Experiment [4] can be described thus: Alcohol sensation of alcohol solutions with 25 ppb β-sitosterol, panel comparison with higher ABV solutions. The procedure: (C) A β-sitosterol solution (prepared in Example I) was added to alcohol solutions at 8.75% ABV, 17.5% ABV and 21.75% ABV (prepared in Example I), respectively, to yield a final concentration of 25 ppb. The alcohol sensation of the obtained samples was evaluated and compared by a panel with alcohol solutions at higher levels of ABV, respectively.

Experiment [5] can be described thus: Carbonation sensation in carbonated water of 6.0, 7.2 and 8.0 g/L CO2 with 2.5 ppt β-sitosterol. To be noted: 2.5 ppt in carbonated water of 6.0, 7.2 and 8.0 g/L CO2, all samples. The procedure: (C) A β-sitosterol solution (prepared in Example I) was added to carbonated water of 6.0, 7.2 and 8.0 g/L CO2 (prepared in Example I), respectively, to yield a final concentration of 2.5 ppt. The carbonation sensation of the obtained samples was evaluated.

Experiment [6] in a line: Carbonation sensation in carbonated water (7.2 g/L CO2) with 0.1 to 50 ppt β-sitosterol. The procedure:
(B) A series of β-sitosterol solutions (prepared in Example I) were added to the carbonated water (7.2 g/L CO2) (prepared in Example I) to yield final concentrations ranging from 0.1 to 50 ppt. The carbonation sensation of the obtained samples containing different amounts of […] was evaluated.

The nature of experiment [7]: Alcohol sensation intensity in 6% ABV solution, panel, scale 0 to 10. The conditions noted are these: mean; 100 ppb in solution of 6% ABV; scale 0 to 10 (0=none, 4=medium, 7=high, 10=extremely high); p<0.01 vs 6% ABV alone. The protocol:
(A) A β-sitosterol solution (prepared in Example I) was added to the alcohol solution at 6% ABV (prepared in Example I) to yield a final concentration of 100 ppb.
The alcohol sensation of the obtained sample was evaluated and compared by a panel with the alcohol solution at 6% ABV using an intensity scale of 0 to 10, where 0=none, 4=medium, 7=high and 10=extremely high. The intensity of alcohol sensation was rated. Mean (“Alcohol Intensity”) and standard error of the mean (“SE”, +) were obtained.

Experiment [8] is described as follows: Flavor of β-sitosterol solutions in water. The conditions noted are these: 2.5 to 600 ppb.

The source of these data is patent publication US20190090524A1, “NOVEL COMPOSITIONS FOR FLAVOR ENHANCEMENT” (INTERNATIONAL FLAVORS & FRAGRANCES INC., priority 2016, published 2019).

Each structure is given as a SMILES string.

For `CC[C@H](CC[C@@H](C)[C@H]1CC[C@H]2[C@@H]3CC=C4C[C@@H](O)CC[C@]4(C)[C@H]3CC[C@]12C)C(C)C` [β-sitosterol, (3S,8S,9S,10R,13R,14S,17R)-17-((1R,4R)-4-ethyl-1,5-dimethyl-hexyl)-10,13-dimethyl-2,3,4,7,8,9,10,11,12,13,14,15,16,17-tetradecahydro-1H-cyclopenta[a]phenanthren-3-ol], the results for the alcohol sensation result in experiment [1] (3 ppb in alcohol solution at 17.5% ABV) and in experiment [1] (at a higher concentration than 3 ppb in alcohol solution at 17.5% ABV) were “slight but noticeable increase in alcohol sensation” and “clear increase of alcohol intensity”, respectively. The “enhancement of alcohol sensation” value in experiment [1] (200 ppb in alcohol solution at 17.5% ABV) was “reached a stable plateau”. Further, the “Carbonation Intensity” value in experiment [2] was determined as 7.19. Moreover, the “alcohol impression, equal level as alcohol solution” value in experiment [3] came out at 2.5 % ABV. The figures for the “alcohol sensation at the level of an alcohol solution” value in experiment [4] (25 ppb in alcohol solution at 8.75% ABV), in experiment [4] (25 ppb in alcohol solution at 17.5% ABV) and in experiment [4] (25 ppb in alcohol solution at 21.75% ABV) were 10 % ABV, 22.5 % ABV and 35 % ABV, respectively. Also, the carbonation sensation result in experiment [5] was “provided enhancement of carbonation sensation”. Moreover, the carbonation perception entry in experiment [6] (0.1 ppt in carbonated water 7.2 g/L CO2) was “slight increase in carbonation perception”; in experiment [6] (2.5 ppt in carbonated water 7.2 g/L CO2), “clear increase in carbonation perception”. In experiment [6] (5 ppt or higher in carbonated water 7.2 g/L CO2), the “enhancement of carbonation effect” value is given as “reached a stable plateau”. The “Alcohol Intensity” value in experiment [7] is 7.21. In addition, in experiment [8], the “flavor of β-sitosterol itself” value is reported as “no noticeable flavor”.
